Each structure is given as a SMILES string. pIC50: −log10 of the molar value.

The subject of one series is HSV-2. Nature of the series: In vitro assay for anti-HSV-2 mRNA activity (QuantiGene Plex 2.0 bDNA) in infected primary endothelial cells. To be noted: best-fit value, primary Adult Human Dermal Microvascular Endothelial Cells, overnight incubation; for pIC50: Human alphaherpesvirus 2, Endothelial cell, HSV-2 mRNA; for LogIC50 / HillSlope: variable slope fit; for LogIC50: concentrations in µM. In kind it is cell-based, HSV type 2. The method, then:
(§1) In vitro assays for anti-HSV-1 and anti-HSV-2 mRNA activity are described in Example 1. Confluent Vero cell monolayers were infected with HSV type 1 or HSV type 2 at a multiplicity of infection of 10 and the resultant virus was used to infect primary Adult Human Dermal Microvascular Endothelial Cells for 1 hour; the supernatant was replaced with fresh culture media and then incubated overnight in the presence of various concentrations of acyclovir, 2-deoxy-D-glucose or an equimolar combination of the two compounds. After overnight incubation, the cells were harvested, lysed, and subjected to QuantiGene Plex 2.0 assay (Panomics, Inc., Fremont, CA) for quantitative assay of HSV-1 and HSV-2 mRNA. The QuantiGene Plex 2.0 assay combines branched DNA (bDNA) signal amplification and multi-analyte profiling beads (xMAP®) technologies to enable the detection and quantitation of multiple mRNA targets simultaneously. Briefly, confluent Vero cell monolayers were infected with HSV type 1 or HSV type 2 at a multiplicity of infection of 10 and the resultant virus was used to infect primary Adult Human Dermal Microvascular Endothelial Cells for 1 hour and then the supernatant was replaced with fresh culture media and then incubated overnight in the presence of various concentrations of acyclovir, 2-deoxy-D-glucose or an equimolar combination of the two compounds. Generally, this assay is considered to be a more sensitive and specific assay (bDNA) for the final readout when compared to an ELISA. The ELISA method while easier, can lack specificity to determine the difference between HSV1 and HSV2. The bDNA assay is a hybridization-based method of target-specific RNA quantitation that amplifies signal rather than target RNA, using labeled DNA probes. The QuantiGene Plex 2.0 system utilizes fluorescent microspheres (Capture Beads) as a support to capture specific RNA molecules. The ability to quantify multiple target-specific RNA molecules in a single sample lies in the design of the Probe Sets. For each RNA molecule of interest, an oligonucleotide Probe Set containing three types of synthetic probes, Capture Extenders (CEs), Label Extenders (LEs), and Blockers (BLs) that hybridize and span contiguous sequences of the target RNA, is provided. The CEs discriminate among the different Capture Beads within the bead array while capturing, via cooperative hybridization, the target RNA. Signal amplification is mediated by DNA amplification molecules that hybridize to the tails of the LEs. Each amplification unit contains multiple hybridization sites for biotinylated Label Probes that bind Streptavidin-conjugated R-Phycoerythrin (SAPE). The resulting fluorescence signal associated with individual Capture Beads is read on a Luminex flow cytometer. Signal is reported as median fluorescence intensity (MFI) and is proportional to the number of target RNA molecules present in the sample. All compounds were run in triplicate for each concentration. Concentrations are expressed in micromolar (µM) concentrations. The IC50 (the drug concentration that reduces the number of virally infected cells by 50%) were determined by plotting the reduction in fluorescence (RLU) versus the drug concentration using Graph Pad Prism software. Specifically, the variable slope model was used to calculate the IC50s with the formula "Y=Bottom + (Top-Bottom)/(1+10^((LogIC50-X)*HillSlope))" using Graph Pad Prism software. The data is shown graphically in Figures 1 and 2. The error bars represent the standard error of the mean (SEM). Table 1. IC50 of Acyclovir and/or 2-Deoxy-D-glucose against HSV-1. […]

Another series relates to HSV-1. Description: In vitro assay for anti-HSV-1 mRNA activity (QuantiGene Plex 2.0 bDNA) in infected primary endothelial cells. In kind it is cell-based, HSV type 1. As to conditions: best-fit value, primary Adult Human Dermal Microvascular Endothelial Cells, overnight incubation; for pIC50: Human alphaherpesvirus 1, Endothelial cell, HSV-1 mRNA; for LogIC50 / HillSlope: variable slope fit; for LogIC50: concentrations in µM. How it is done:
as §1

For series [1] the following is noted: local application compared with oral; cited from earlier work.

Turning to `O=CC[C@@H](O)[C@H](O)[C@H](O)CO` [2 Deoxy D glucose, 2-deoxy-D-glucose], in the series with HSV-2, the pIC50 (commonly the negative decadic logarithm of the IC50, by convention in mol/L) is 5.10; the LogIC50 is 0.9029; the HillSlope is recorded as -3.957. In the series with HSV-1, the pIC50 was 4.68, the LogIC50 was determined as 1.32 and the HillSlope was -2.395.

Take `Nc1nc2c(ncn2COCCO)c(=O)[nH]1` [Acyclovir, 9-(2-hydroxyethoxymethyl)guanine]: the “drug concentration in the skin after local application versus given orally” value in series [1] is 2-3 times lower. Also, in the series with HSV-2, the pIC50 was 5.72, the LogIC50 turned out to be 0.2805 and the HillSlope is -1.113. In the series on HSV-1, the pIC50 was 5.75, the LogIC50 is listed as 0.2509 and the HillSlope is reported as -1.108.

Values taken from EP2782585B1, “ANTIVIRAL FORMULATIONS” (3B Pharmaceuticals, Inc., priority 2011, dated 2013).
